In assay [1] the target is T1, Adrenergic receptor alpha-1 (Rattus norvegicus, UniProt P15823+P23944+P43140).
T1 sequence (P15823 whole entry): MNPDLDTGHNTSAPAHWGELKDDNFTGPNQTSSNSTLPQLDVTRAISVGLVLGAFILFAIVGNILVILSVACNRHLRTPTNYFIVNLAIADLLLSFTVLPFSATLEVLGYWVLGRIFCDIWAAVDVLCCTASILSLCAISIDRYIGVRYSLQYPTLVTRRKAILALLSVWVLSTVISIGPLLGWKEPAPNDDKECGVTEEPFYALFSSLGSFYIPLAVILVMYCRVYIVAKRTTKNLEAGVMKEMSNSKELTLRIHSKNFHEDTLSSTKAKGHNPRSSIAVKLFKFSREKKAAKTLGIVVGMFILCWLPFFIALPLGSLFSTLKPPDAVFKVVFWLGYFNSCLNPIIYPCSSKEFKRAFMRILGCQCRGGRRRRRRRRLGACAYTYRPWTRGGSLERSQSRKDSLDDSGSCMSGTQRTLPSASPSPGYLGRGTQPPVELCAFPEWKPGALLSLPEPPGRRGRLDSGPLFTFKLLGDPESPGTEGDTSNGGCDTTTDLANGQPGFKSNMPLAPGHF
T1 sequence (P23944 whole entry): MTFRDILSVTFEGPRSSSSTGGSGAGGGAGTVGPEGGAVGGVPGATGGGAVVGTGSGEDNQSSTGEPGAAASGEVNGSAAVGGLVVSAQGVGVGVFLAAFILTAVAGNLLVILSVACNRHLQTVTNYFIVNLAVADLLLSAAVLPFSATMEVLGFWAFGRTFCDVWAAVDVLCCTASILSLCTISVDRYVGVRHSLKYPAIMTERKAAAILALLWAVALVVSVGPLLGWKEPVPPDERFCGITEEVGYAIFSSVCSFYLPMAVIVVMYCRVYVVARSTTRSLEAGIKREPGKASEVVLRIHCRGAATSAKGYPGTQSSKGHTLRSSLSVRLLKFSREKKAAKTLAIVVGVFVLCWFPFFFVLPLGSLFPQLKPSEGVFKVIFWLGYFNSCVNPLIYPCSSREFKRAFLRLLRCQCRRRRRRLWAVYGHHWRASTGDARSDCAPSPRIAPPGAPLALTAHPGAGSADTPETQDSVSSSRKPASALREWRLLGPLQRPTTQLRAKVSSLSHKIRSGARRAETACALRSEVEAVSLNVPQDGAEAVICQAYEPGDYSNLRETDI
T1 sequence (P43140 whole entry): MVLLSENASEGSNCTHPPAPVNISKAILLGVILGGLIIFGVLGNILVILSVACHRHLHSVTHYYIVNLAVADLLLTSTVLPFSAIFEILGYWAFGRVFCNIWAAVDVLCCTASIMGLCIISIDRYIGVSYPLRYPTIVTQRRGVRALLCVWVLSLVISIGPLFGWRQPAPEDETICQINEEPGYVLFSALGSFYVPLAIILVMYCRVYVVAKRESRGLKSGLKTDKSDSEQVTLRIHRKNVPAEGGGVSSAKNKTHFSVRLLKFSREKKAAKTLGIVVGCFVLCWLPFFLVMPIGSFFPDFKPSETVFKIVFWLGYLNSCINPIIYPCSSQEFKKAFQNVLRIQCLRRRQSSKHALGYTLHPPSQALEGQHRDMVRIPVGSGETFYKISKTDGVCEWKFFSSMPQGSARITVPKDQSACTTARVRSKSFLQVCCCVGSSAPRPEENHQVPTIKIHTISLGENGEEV
The experiment in a line: Binding affinity at Alpha-1 adrenergic receptor in rat cerebral cortex membranes by [3H]prazosin displacement. It is filed as cell membranes, Membrane.

Assay [2] addresses 5-hydroxytryptamine receptor 2A (Rattus norvegicus, UniProt P14842). The experiment in a line: Compound was evaluated for binding affinity against 5-hydroxytryptamine 2A receptor using [3H]ketanserin as a radioligand.
Assay [3] concerns the target T2, 5-hydroxytryptamine receptor 1A (Rattus norvegicus, UniProt P19327).
T2 sequence (P19327 whole entry): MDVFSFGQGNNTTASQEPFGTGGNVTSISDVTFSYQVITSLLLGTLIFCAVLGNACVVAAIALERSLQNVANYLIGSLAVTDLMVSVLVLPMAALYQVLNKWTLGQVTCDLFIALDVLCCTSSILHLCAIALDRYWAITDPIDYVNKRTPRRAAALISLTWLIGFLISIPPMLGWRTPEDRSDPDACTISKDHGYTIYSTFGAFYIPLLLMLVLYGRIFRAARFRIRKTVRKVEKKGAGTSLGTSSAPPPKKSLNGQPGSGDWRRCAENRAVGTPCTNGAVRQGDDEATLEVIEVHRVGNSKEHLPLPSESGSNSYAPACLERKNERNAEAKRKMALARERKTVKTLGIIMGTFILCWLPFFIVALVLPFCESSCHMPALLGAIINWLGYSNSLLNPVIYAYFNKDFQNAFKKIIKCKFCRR
In words: Compound was evaluated for its ability to displace [3H]8-OH-DPAT from serotonin 5-hydroxytryptamine 1A receptor in rat cerebral cortex membranes. It is filed as cell membranes, Membrane.

Each structure is given as a SMILES string.

Sequence of 5-hydroxytryptamine receptor 2A (P14842 whole entry): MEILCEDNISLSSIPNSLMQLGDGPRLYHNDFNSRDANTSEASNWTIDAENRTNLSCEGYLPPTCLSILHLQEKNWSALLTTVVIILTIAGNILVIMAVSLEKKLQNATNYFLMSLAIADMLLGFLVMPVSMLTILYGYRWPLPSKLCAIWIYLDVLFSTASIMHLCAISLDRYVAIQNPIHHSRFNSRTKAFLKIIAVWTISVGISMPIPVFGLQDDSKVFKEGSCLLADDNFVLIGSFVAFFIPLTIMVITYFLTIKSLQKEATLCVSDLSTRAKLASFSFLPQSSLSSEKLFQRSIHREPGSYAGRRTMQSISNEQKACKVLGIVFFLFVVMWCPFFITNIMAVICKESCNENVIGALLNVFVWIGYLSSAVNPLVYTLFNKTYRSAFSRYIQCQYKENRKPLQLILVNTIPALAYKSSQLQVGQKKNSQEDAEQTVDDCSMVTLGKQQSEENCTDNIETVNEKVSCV

`COc1ccccc1N1CCN(CCCN2C(=O)c3ccccc3C2=O)CC1`: in assay [1], the Ki was 33 nM.

Consider `COc1ccccc1N1CCN(CN2C(=O)C3CCCCN3C2=O)CC1` (stereo not given), for which, in assay [2], the Ki was 1000 nM.

In turn, `COc1ccccc1N1CCN(CCCN2C(=O)CC3(CCCC3)CC2=O)CC1` displayed an IC50 in assay [3] of 80 nM.

In assay [1], `COc1ccccc1N1CCN(CCN2C(=O)c3ccccc3C2=O)CC1` registered a Ki of 130 nM.

In assay [3], `COc1ccccc1N1CCN(CCCCN2C(=O)CC3(CCCC3)CC2=O)CC1` came in with an IC50 of 2 nM.

By Ki is commonly meant a measure of affinity in units of concentration, obtained from inhibition or displacement. What is called IC50 is the concentration that gives 50% inhibition. A low value points to greater potency in that assay.

(Values after ChEMBL document CHEMBL1153657, “2-[4-(o-methoxyphenyl)piperazin-1-ylmethyl]-1,3-dioxoperhydroimidazo[1,5-a]pyridine as a new selective 5-HT1A receptor ligand” (Bioorg Med Chem Lett, 1996).)
